{"source": "BindingDB's records for doi:10.1021/acs.jmedchem.6b01711", "about": "(University of Strathclyde, 2017)", "key": {"[1]": {"assay": "Antagonist activity at integrin alpha2b beta3 receptor in citrated human platelet-rich plasma assessed as inhibition of ADP-induced platelets aggregation preincubated for 15 mins followed by ADP addition measured for 8 mins by aggregometric analysis"}, "[2]": {"assay": "Inhibition of alpha5 beta1 integrin (unknown origin) by cell proliferation assay"}, "[3]": {"assay": "Inhibition of alpha5 beta1 integrin (unknown origin) by cell migration assay"}, "[4]": {"assay": "Antagonist activity at integrin alpha2b beta3 receptor in citrated human platelet-rich plasma assessed as inhibition of ADP-induced platelet aggregation"}}}
{"smiles": "CCc1nn2c(=O)cc(N3CCNCC3)nc2s1", "values": [{"measurement": "IC50", "setting": "[1]", "result": 9.7, "unit": "µM"}]}
{"smiles": "O=c1c(C2NCCc3c2[nH]c2ccccc32)c(O)[nH]c(=S)n1Cc1ccc(F)cc1", "note": "(centres undefined)", "values": [{"measurement": "IC50", "setting": "[2]", "result": 20.5, "unit": "µM"}, {"measurement": "IC50", "setting": "[3]", "result": 15.5, "unit": "µM"}]}
{"smiles": "N=C(N)c1ccc2cc(OC(=O)c3ccc(N=C(N)N)cc3)ccc2c1", "note": "[4-Guanidino-benzoic acid 6-carbamimidoyl-naphthalen-2-yl ester(FUT-175)]", "values": [{"measurement": "IC50", "setting": "[4]", "result": 12, "unit": "µM"}]}
